Experimental data reported in publication PMC7129073 (Clinical Microbiology and Infection, 2015).
Converted amounts (≈) assume the structure as drawn. “Also recorded” adds a separate entry of the source. Marks after values point to notes of the source that are not given here.

Legend:
H. parainfluenzae = assay: MIC, NCCLS methods; type: cell-based; settings: Haemophilus parainfluenzae
[1] = tested on: methicillin resistant Staphylococcus aureus; assay: NCCLS agar dilution MIC; type: cell-based; settings: Staphylococcus aureus
S. aureus (MS) = assay: MIC, NCCLS methods; type: cell-based; settings: Staphylococcus aureus
A. haemolyticum = assay: MIC, NCCLS methods; type: cell-based; settings: N=9
S. pneumoniae = assay: MIC, NCCLS methods; type: cell-based; settings: Streptococcus pneumoniae
E. faecalis = assay: MIC, NCCLS methods; type: cell-based; settings: Enterococcus faecalis
E. faecium = assay: MIC, NCCLS methods; type: cell-based; settings: Enterococcus faecium
H. influenzae = assay: MIC, NCCLS methods; type: cell-based; settings: Haemophilus influenzae
S. aureus (MR) = assay: MIC, NCCLS methods; type: cell-based; settings: Staphylococcus aureus
[2] = tested on: methicillin susceptible Staphylococcus aureus; assay: NCCLS agar dilution MIC; type: cell-based; settings: Staphylococcus aureus
B. pertussis = assay: MIC, NCCLS methods; type: cell-based; settings: N=10
N meningitidis = assay: MIC, NCCLS methods; type: cell-based
S. progenies = assay: MIC, NCCLS methods; type: cell-based; settings: Streptococcus pyogenes
Streptococcus spp = assay: MIC, NCCLS methods; type: cell-based
M. catarrhalis = assay: MIC, NCCLS methods; type: cell-based; settings: Moraxella catarrhalis
[3] = tested on: E. coli (OXA 5 transformant); assay: NCCLS agar dilution MIC; type: cell-based; settings: Escherichia coli
[4] = tested on: Morganella morganii (ceftazidime R); assay: NCCLS agar dilution MIC; type: cell-based; design: unit not given beside the values; settings: n=2
[5] = tested on: Citrobacter freundii (ceftazidime R); assay: NCCLS agar dilution MIC; type: cell-based; settings: n=6
[6] = tested on: E. coli (TEM 10 transformant); assay: NCCLS agar dilution MIC; type: cell-based; settings: Escherichia coli
[7] = tested on: inducible Enterobacteriaceae; assay: SMART 2003, intraabdominal isolates; type: cell-based
Enterobacteriaceae = assay: SMART 2003 Europe, microdilution; type: cell-based; settings: 1948 isolates
Klebsiella = assay: SMART 2003 Europe, microdilution; type: cell-based, Klebsiella spp.; settings: 341 isolates
Pseudomonas aeruginosa = assay: MIC, strains from cystic fibrosis patients; settings: by MIC
P. aeruginosa = type: cell-based, Pseudomonas aeruginosa
Escherichia coli (ECO) = assay: Broth microdilution; type: cell-based; settings: 2001
E. coli [8] = assay: SMART 2003 Europe, microdilution; type: cell-based, Escherichia coli; settings: 1106 isolates
[9] = tested on: P. aeruginosa strains from CF sputa; assay: O-serotyping; type: cell-based, Pseudomonas aeruginosa; settings: exposure to 1/2–1/16 MIC (ceftazidime) or 1/2–1/8 MIC (ciprofloxacin)
[10] = tested on: Pseudomonas putida clinical isolates; assay: Agar dilution MIC; type: cell-based
Acinetobacter = assay: Disk diffusion; type: cell-based; settings: 37 isolates selected as resistant to beta-lactams
Escherichia coli = assay: Vitek 2 susceptibility, urine isolates of children; type: cell-based
K. pneumoniae = assay: E-test susceptibility; type: cell-based, Klebsiella pneumoniae
E. coli [11] = assay: E-test susceptibility; type: cell-based, Escherichia coli
[12] = tested on: E. coli (TEM 9 transformant); assay: NCCLS agar dilution MIC; type: cell-based; settings: Escherichia coli, n=1 per table line (three lines)
K. oxytoca = assay: E-test susceptibility; type: cell-based, Klebsiella oxytoca
Enterobacter spp = assay: E-test susceptibility; type: cell-based

Structure (SMILES): CC[C@H]1OC(=O)[C@H](C)[C@@H](O[C@H]2C[C@@](C)(OC)[C@@H](O)[C@H](C)O2)[C@H](C)[C@@H](O[C@@H]2O[C@H](C)C[C@H](N(C)C)[C@H]2O)[C@](C)(O)C[C@@H](C)C(=O)[C@H](C)[C@@H](O)[C@]1(C)O [Erythromycin A, erythromycin A]
- MIC50 (H. parainfluenzae): 2 µg/mL (≈ 2.73 µM)
- MIC90 (H. parainfluenzae): 8 µg/mL (≈ 10.9 µM)
- MIC50 [1]: > 64 µg/mL
- MIC90 [1]: > 64 µg/mL
- MIC50 (S. aureus (MS)): 0.25 µg/mL (≈ 0.341 µM)
- MIC90 (S. aureus (MS)): > 64 µg/mL
- MIC range (A. haemolyticum): ≤0.015-0.03 ^* mg/L
- MIC50 (S. pneumoniae): > 32 µg/mL
- MIC90 (S. pneumoniae): > 32 µg/mL
- MIC50 (E. faecalis): > 64 µg/mL
- MIC90 (E. faecalis): > 64 µg/mL
- MIC50 (E. faecium): > 64 µg/mL
- MIC90 (E. faecium): > 64 µg/mL
- MIC50 (H. influenzae): 4 µg/mL (≈ 5.45 µM)
- MIC90 (H. influenzae): 8 µg/mL (≈ 10.9 µM)
- MIC50 (S. aureus (MR)): > 64 µg/mL
- MIC90 (S. aureus (MR)): > 64 µg/mL
- MIC50 [2]: 0.25 µg/mL (≈ 0.341 µM)
- MIC90 [2]: > 64 µg/mL
- MIC range (B. pertussis): 0.06 to 0.12 µg/mL
- MIC50 (N meningitidis): 0.12 µg/mL (≈ 0.164 µM)
- MIC90 (N meningitidis): 0.25 µg/mL (≈ 0.341 µM)
- MIC50 (S. progenies): > 64 µg/mL
- MIC90 (S. progenies): > 64 µg/mL
- MIC50 (Streptococcus spp): 0.06 µg/mL (≈ 0.0818 µM)
- MIC90 (Streptococcus spp): 0.12 µg/mL (≈ 0.164 µM)
- MIC50 (M. catarrhalis): 0.12 µg/mL (≈ 0.164 µM)
- MIC90 (M. catarrhalis): 0.12 µg/mL (≈ 0.164 µM)

Structure (SMILES): C[C@H]1[C@H](NC(=O)/C(=N\OC(C)(C)C(=O)O)c2csc(N)n2)C(=O)N1S(=O)(=O)O [aztreonam]
- MIC [3]: 16 µg/mL (≈ 36.7 µM)
- MIC (two isolates) [4]: 2/8
- MIC range [5]: 4 to 64 µg/mL
- MIC [6]: 32 µg/mL (≈ 73.5 µM)

Structure (SMILES): CC(C)(O/N=C(\C(=O)N[C@@H]1C(=O)N2C(C(=O)[O-])=C(C[n+]3ccccc3)CS[C@H]12)c1csc(N)n1)C(=O)O [ceftazidime]
- % susceptible ([7]; A/P (N = 200)): 59%
- % susceptible ([7]; EU (N = 354)): 75%
- % susceptible ([7]; LA (N=113)): 69%
- % susceptible ([7]; NA (N = 163)): 71%
- per cent susceptible (Enterobacteriaceae): 92%
- MIC [3]: 64 µg/mL (≈ 117 µM)
- per cent susceptible (Klebsiella): 94%
- Susceptible isolates (Pseudomonas aeruginosa): 84%
- MIC (two isolates) [4]: 16/64
- resistant (P. aeruginosa): 32%
- susceptible (Escherichia coli (ECO); NAL-resistant isolates): 93.3%
- susceptible (Escherichia coli (ECO); NAL-susceptible isolates): 99.0%
- per cent susceptible (E. coli [8]): 96%
- MIC [6]: > 128 µg/mL
- change of agglutination type of nine monoagglutinable strains [9]: seven strains have become auto-agglutinable; also recorded: two strains have become polyagglutinable
- MIC [10]: > 128 µg/mL
- resistant isolates (Acinetobacter): 56.8%
- susceptibility rate (Escherichia coli; paediatric surgical unit (PSU)): 39%
- susceptibility rate (Escherichia coli; paediatric units (PU)): 95%
- Susceptible isolates (K. pneumoniae; ICU): 98%
- Susceptible isolates (K. pneumoniae; non ICU): 100%
- Susceptible isolates (E. coli [11]; ICU, SRGA breakpoints, tigecycline tentative S ≤2 μg/ml): 98%
- Susceptible isolates (E. coli [11]; non ICU): 99%
- MIC [12]: > 128 µg/mL
- Susceptible isolates (K. oxytoca; ICU): 100/100%
- Susceptible isolates (K. oxytoca; non ICU): 100/100%
- Susceptible isolates (Enterobacter spp; ICU): 75%
- Susceptible isolates (Enterobacter spp; non ICU): 89%
